The source of these data is patent US20250228826A1, “COMBINATION OF A GREMLIN-1 ANTAGONIST WITH AN INHIBITOR OF RAS-RAF-MEK-ERK SIGNALLING” (UCB BIOPHARMA SRL, priority 2022, published 2025).

The subject of assay [1] is pancreatic tumours in KPC mice. The assay is described as follows: Survival of KPC mice from start of treatment, Kaplan-Meier and Log-Rank (Examples 3 and 4). The format is in vivo. As to conditions: for Median survival: KPC mice survival cohort. An excerpt: (§1) LSL-Kras^G12D/+; Trp53^R172H/+; Pdx1-Cre (KPC) mice have been described previously (Hingorani et al., 2005). Mice were generated by crossing mice bearing Pdx1-Cre, and conditional LSL-KrasG12D or LSL-Trp53R172H alleles (strains 01XJ6 and 01XL9, Mouse Models of Human Cancer Consortium [MMHCC], NCI-Frederick, Frederick, MD, USA). Mice on a mixed background were bred in-house at the CRUK Beatson Institute and maintained in conventional caging with environmental enrichment, access to standard chow and water ad libitum. Genotyping was performed by Transnetyx (Cordoba, TN, USA). Mice of both sexes were recruited onto study. All animal experiments were performed under a UK Home Office licence and approved by the University of Glasgow Animal Welfare and Ethical Review Board.
Mice were monitored 3 times weekly until a diagnosis of pancreatic cancer was made by abdominal palpation and confirmed by ultrasound imaging. […] There were >12 mice per group. Mice were monitored daily and sacrificed either at 7 days post-initiation of treatment (4 mice per group) or when reaching ethical endpoint (>8 mice per group, symptoms include abdominal distension, cachexia, intermittent hunching or reduced mobility, piloerection, mild diarrhoea, anaemia). Statistical assessment of survival of these mice from start of treatment was carried out by Kaplan-Meier and Log-Rank analysis.
Mice were monitored at least weekly by palpation until pancreatic tumours were detectable.
For the survival cohort (Table 4), high resolution ultrasound imaging was performed weekly over the treatment period in order to monitor the tumour burden of each individual mouse on treatment. Mice remained on study and were closely monitored until ethical endpoint was reached, at which time they were sacrificed as per institutional guidelines.

The subject of assay [2] is pancreatic tumours in KPC mice. The assay is described as follows: Tumour volume by 3D ultrasound imaging in KPC mice (Example 5). The format is in vivo, mouse. The method, then:
The VisualSonics Vevo 3100 preclinical imaging platform (FUJIFILM VisualSonics, Toronto, Canada) was used for high-resolution ultrasound imaging to confirm tumour diagnosis and for weekly monitoring of tumour progression. Anaesthesia was induced and maintained with a mixture of isoflurane and medical air. Tumour volume was calculated weekly for each mouse and plotted longitudinally.
(§2) Mice were monitored 3 times weekly until a diagnosis of pancreatic cancer was made by abdominal palpation and confirmed by ultrasound imaging. […] Mice were monitored daily and sacrificed when reaching ethical endpoint.
(§3) Statistical assessment of survival of these mice from start of treatment was carried out using a Cox's proportional hazards model to calculate hazard ratios. Tumour volume data at day 7 data were analysed using a linear model suitable for a randomised design, fitting Treatment Tumour volume at day 0 was used as a covariate to increase the precision of the estimates.
The volume of the pancreatic tumours in control or treated KPC mice was measured over time using 3D tumour imaging by ultrasound.

Assay [3] relates to pancreatic tumours in KPC mice. Kind of assay: Survival of KPC mice, Cox's proportional hazards model (Example 5). To be noted: for Median survival: KPC mice, Example 5 cohort (Table 8), Ab7326 mIgG1 30 mg/kg s.c. twice weekly, Selumetinib 25 mg/kg p.o. b.i.d., UCB-554 10 mg/kg p.o. every 2 days; for Hazard ratio Ab7326/treatment: comparator Ab7326 alone. The format is in vivo, mouse.
Text: as §1, §2, §3

“And” between values parts separate entries of the source, which are not always exact repeats. Equal entries are not always repeated.

On to `Cn1cnc2c(F)c(Nc3ccc(Br)cc3Cl)c(C(=O)NOCCO)cc21` [Selumetinib, 6-(4-bromo-2-chloroanilino)-7-fluoro-N-(2-hydroxyethoxy)-3-methylbenzimidazole-5-carboxamide], for which the Median survival is given as 17 days in assay [1] (Example 4, same doses as Table 4); 17 in assay [1] (Table 4 (text b395 gives days), Ab7326 mIgG1 30 mg/kg s.c. twice weekly, Selumetinib 25 mg/kg p.o. b.i.d., Selumetinib arm historical data); 22 days in assay [3]. Moreover, the “Days on Rx” value in assay [1] (survival of individual KPC mice on treatment, one line per mouse (Table 6)) was 9 Days and 13 Days and 15 Days and 17 Days (2×) and 20 Days and 32 Days and 33 Days. The “tumour volume at day 7 after start of treatment compared to vehicle or Ab7326 treatment alone” value in assay [2] is on record as “mean tumour volume is reduced”. In addition, the “Hazard ratio Vehicle/treatment” value in assay [3] (Table 10, combined dataset Table 4 + Table 8, Cox model) came to 1.77. For the same molecule, the “Hazard ratio Ab7326/treatment” value in assay [3] (Table 10, combined dataset Table 4 + Table 8) was 1.31.

Regarding `NCC1CN(C(=O)c2c(Nc3ccc(I)cc3F)sc3ncccc23)C1` [UCB-554, [3-(Aminomethyl)azetidin-1-yl]-{2-[(2-fluoro-4-iodophenyl)amino]thieno[2,3-b]pyridin-3-yl}-methanone], in assay [2], the “tumour volume at day 7 after start of treatment compared to vehicle or Ab7326 treatment alone” value is listed as “tumour volume is reduced”. For the same molecule, in assay [3] (Example 5 cohort, in words), the “survival of KPC mice over vehicle only control or Ab7326 treatment” value was “moderate increase in survival”. In assay [3], the Median survival was found to be 21 days. For the same molecule, the “Hazard ratio Vehicle/treatment” value in assay [3] (Table 9, Example 5 cohort, Cox model, >1 favours treatment) is recorded as 2.04. For the same molecule, the “Hazard ratio Ab7326/treatment” value in assay [3] (Table 9, Example 5 cohort, Cox model) stood at 2.50.
